# From ChEMBL document CHEMBL4689842, “EUbOPEN Chemogenomics Library wave 1” (2021)
# Tested on: Fibroblast
# Experiment: Incucyte cell viability with human fibroblast; note: filed as whole numbers so only -1 and 0 and 1 occur
# Type: toxicity, cell-based
# Details: 10 µM, compound concentration 10 uM
# [1] = 0 h, replicate number 1, timepoint 0 hours
# [2] = 6 h, replicate number 1, timepoint 6 hours
# [3] = 12 h, replicate number 1, timepoint 12 hours
# [4] = 18 h, replicate number 1, timepoint 18 hours
# [5] = 24 h, replicate number 1, timepoint 24 hours
# [6] = 24 h, replicate number 2, timepoint 24 hours
# [7] = 0 h, replicate number 2, timepoint 0 hours
# [8] = 6 h, replicate number 2, timepoint 6 hours
# [9] = 12 h, replicate number 2, timepoint 12 hours
# [10] = 18 h, replicate number 2, timepoint 18 hours
Compound,Growth Rate [1],Growth Rate [2],Growth Rate [3],Growth Rate [4],Growth Rate [5],Growth Rate [6],Growth Rate [7],Growth Rate [8],Growth Rate [9],Growth Rate [10]
O=C(Nc1cccnn1)N1CCC(=Cc2cccc(Oc3ccc(C(F)(F)F)cn3)c2)CC1,0,0,0,0,0,1,,,,
O=C1N/C(=N/c2ccccc2F)S/C1=C\c1ccc(C(=O)O)cc1,,,,,0,,,,,
CCCS(=O)(=O)Nc1ccc(F)c(C(=O)c2c[nH]c3ncc(Cl)cc23)c1F [PLX-4720],1,0,0,0,0,,0,,,
CN(C)C(=O)C(CCN1CCC(O)(c2ccc(Cl)cc2)CC1)(c1ccccc1)c1ccccc1.Cl [LOPERAMIDE HYDROCHLORIDE],,0,0,0,0,,,,,
O=C(Nc1ccc(-c2ccnc(Nc3ccc(N4CCOCC4)cc3)n2)cc1)[C@@H]1CCCN1,0,,,1,0,,,,,
CN([C@@H](Cc1ccc(OS(=O)(=O)c2cccc3cnccc23)cc1)C(=O)N1CCN(c2ccccc2)CC1)S(=O)(=O)c1cccc2cnccc12,1,,1,1,0,1,,0,0,
CN1CCN(C(=O)C(C)(C)c2ccc(C(=O)Nc3cn4cc(-c5ccncc5)ccc4n3)cc2)CC1 [T3-CLK],,,,1,1,,0,,,
Cl.O=c1c2cccn2c2ccccc2n1CCCN1CCC(c2ccc(Cl)cc2)CC1,1,0,0,0,0,,,,,
CN1CCC(=C2c3ccccc3CC(=O)c3sccc32)CC1.O=C(O)/C=C/C(=O)O [KETOTIFEN FUMARATE],0,0,0,0,0,,,,,
CCOc1cc2ncc(C#N)c(Nc3ccc(OCc4ccccn4)c(Cl)c3)c2cc1NC(=O)/C=C/CN(C)C [NERATINIB],0,,1,0,0,1,,,,
CCCn1c(=O)c2[nH]c(-c3cnn(Cc4cccc(C(F)(F)F)c4)c3)nc2n(CC)c1=O [GS 6201],0,,,1,1,,,,,
CCOC(=O)c1c(C)[nH]c2ccc3c(c12)CN1CCc2cc(OC)ccc2C1O3 (stereo not drawn),,0,0,0,0,,,,,
COc1ccc(S(=O)(=O)N(CCO)c2ccccc2CN(C)C/C=C/c2ccc(Cl)cc2)cc1.O=P(O)(O)O,,0,0,0,0,,1,1,,
Cc1ccc(C(=O)Nc2cccc(C(F)(F)F)c2)cc1Nc1nc(-c2cccnc2)nc2c1cnn2C,,0,0,0,0,,,,,
Cc1cn(-c2cc(NC(=O)c3ccc(C)c(Nc4nccc(-c5cccnc5)n4)c3)cc(C(F)(F)F)c2)cn1 [NILOTINIB],0,0,0,0,0,,,,,
CN1CCN(C(=O)C(C)(C)c2ccc(C(=O)Nc3cn4cc(-c5cc(C(C)(C)C)cc(C(C)(C)C)c5)ccc4n3)cc2)CC1 [T3-CLK-N],,,,1,1,,0,,,
COc1ccc(-c2ccc3c(N4CCOCC4)nc(N4C[C@@H](C)O[C@@H](C)C4)nc3n2)cc1CO [Ku-0063794],1,,1,1,0,,,1,0,0
CNc1cc(Oc2cc(C(=O)Nc3cc(N4CCN(C)CC4)cc(C(F)(F)F)c3)ccc2C)ncn1,0,0,0,0,0,,,,,
CNC(=O)c1ccc(Nc2nc(OC3CCCC3)c3c(-c4ccc5nc(C)oc5c4)c[nH]c3n2)c(OC)c1,0,,0,0,0,,,0,,
O=C(Nc1ccc(Cl)cc1)Nc1cccc(-c2cccc(N3CCCC3)n2)c1,0,0,0,0,0,,,,,
S=C(NCCCc1c[nH]cn1)NCCCN(Cc1ccc(Cl)c(Cl)c1)c1ccc(Br)cn1,0,0,0,0,0,,,,,
Cc1ccc2nc(NCCN)c3ncc(C)n3c2c1.O=C(O)C(F)(F)F.O=C(O)C(F)(F)F,,0,0,0,0,,0,,,
Cl.Oc1ccc2c3c1O[C@H]1c4[nH]c5c(c4C[C@@]4(O)[C@@H](C2)N(CC2CC2)CC[C@]314)C[C@@]1(O)[C@H]2Cc3ccc(O)c4c3[C@@]1(CCN2CC1CC1)[C@H]5O4,0,0,0,0,0,1,1,,1,
CCN1CCN(c2ccc(Nc3cc(N(C)C(=O)Nc4c(Cl)c(OC)cc(OC)c4Cl)ncn3)cc2)CC1 [INFIGRATINIB],0,1,1,0,0,,,,,

Compound,Growth Rate [1],Growth Rate [2],Growth Rate [3],Growth Rate [4],Growth Rate [5],Growth Rate [6],Growth Rate [7],Growth Rate [8],Growth Rate [9],Growth Rate [10]
NC(=O)c1cccc(-c2cc(Nc3ccc(OC(F)(F)F)cc3)ncn2)c1,1,0,0,0,0,1,0,1,1,1
O=C1NC(=O)C(c2cnc3ccccn23)=C1c1cn2c3c(cc(F)cc13)CN(C(=O)N1CCCCC1)CC2 [LY-2090314],,0,0,0,0,,1,,,
CCc1cccc(CC)c1NC(=O)c1nn(C)c2c1CCc1cnc(Nc3ccc(N4CCN(C)CC4)cc3OC)nc1-2,,0,0,0,0,,1,,,
CCN(CC)S(=O)(=O)Nc1cccc(-c2ccc3c(NC(=O)C4CC4)n[nH]c3c2)c1,,0,0,0,0,,,,,
COc1cccc2cc(-c3nc([C@H]4CC[C@H](C(=O)O)CC4)n4ncnc(N)c34)[nH]c12 [OSI-027],0,,0,0,0,,,,1,
CCn1cc(-c2ccnc3[nH]c(-c4cccc(CN(C)C)c4)cc23)c(-c2ccc(NC(=O)N(C)C)cc2)n1 [GSK-1070916],0,1,0,0,0,,,,1,
COc1cc(N2CCN(C)CC2)ccc1Nc1ncc2c(n1)N(C)c1ccccc1C(=O)N2C,0,,0,1,1,,,,,
COCC(=O)NC/C=C/c1ccc2ncnc(Nc3ccc(Oc4ccc(C)nc4)c(C)c3)c2c1 [CP-724714],0,,1,1,1,0,,1,0,0
CCNc1cc(N[C@H]2CC[C@H](O)CC2)nc(Nc2ccc3c(ccn3Cc3ccccc3)c2)n1,,0,0,0,0,,,,,
CN1C2CCC1CC(OC(c1ccc(F)cc1)c1ccc(F)cc1)C2.Cl (stereo not drawn),,1,1,1,0,,,0,0,0
Cn1nc(C(=O)NCc2ccc(C(=O)O)cc2)cc1-c1ccc2[nH]ccc2c1 [BI 4395],0,,1,1,1,,,0,,
O=C(Cc1ccc(-c2ccc(OCCN3CCOCC3)cc2)cn1)NCc1ccccc1 [TIRBANIBULIN],,0,0,0,0,,,,,
COc1cc2ncnc(Nc3ccc(F)c(Cl)c3)c2cc1NC(=O)/C=C/CN1CCCCC1 [DACOMITINIB ANHYDROUS],,0,0,0,0,,1,,,
C=C1/C(=C\C=C2/CCC[C@]3(C)[C@@H]([C@H](C)/C=C/[C@H](C)C(C)C)CC[C@@H]23)C[C@@H](O)C[C@@H]1O [DOXERCALCIFEROL],0,,1,1,0,,,0,0,0
C=CCn1c(=O)c2cnc(Nc3ccc(N4CCN(C)CC4)cc3)nc2n1-c1cccc(C(C)(C)O)n1 [ADAVOSERTIB],0,0,0,0,0,,,,,
CCN1CCN(Cc2ccc(Nc3ncc(F)c(-c4cc(F)c5nc(C)n(C(C)C)c5c4)n3)nc2)CC1.CS(=O)(=O)O,0,,,1,0,1,,,,
Cl.O=C(c1ccc(Nc2nccc(-c3cc4ccccc4s3)n2)cc1)N1CCC(N2CCCC2)CC1,0,0,0,0,0,,,,,
CCn1c(=O)c(-c2ccc(-c3cncs3)cc2Cl)cc2cnc(Nc3ccc(N4CCN(C)CC4)cc3)nc21,0,,,1,0,,,,,
C[C@H]1Oc2cc(cnc2N)-c2c(nn(C)c2C#N)CN(C)C(=O)c2ccc(F)cc21 [LORLATINIB],,0,0,0,0,,0,,,
CCOc1cc(C(=O)N2CCC(N3CCN(C)CC3)CC2)ccc1Nc1ncc2c(n1)N(C1CCCC1)c1ccccc1C(=O)N2C,,1,0,0,0,1,0,,,1
Cc1cc(C)c(S(=O)(=O)N(Cc2ccc(-c3cccc(S(C)(=O)=O)c3)cc2)Cc2ccc(C(F)(F)F)o2)c(C)c1,1,1,0,0,0,,0,,,
COC(=N)c1nc2ccc3ncnc(Nc4ccc(OC)cc4F)c3c2s1,0,,1,1,0,,,,,
O=C(Nc1ccc(-n2nc(-c3cccnc3)cc2C(F)(F)F)cn1)c1ccc(-c2ccccc2)c(F)c1 [BI 2049],0,0,0,0,0,,,,,
